# Assay results as given in US5075289A, “9-R-azacyclic erythromycin antibiotics” (priority 1988, dated 1991).
# Assays:
# Test in all cases: In vitro antibacterial activity, agar dilution MIC
# Assay type in all cases: cell-based
# [1] = system: Haemophilus influenzae SPK AMP R; conditions: H. influenzae SPK AMP R
# Method: (§1) The antimicrobial spectra of a number of compounds of the invention were tested by the following method:
# (§2) Twelve petri dishes containing successive aqueous dilutions of the test compound mixed with 10 ml of sterilized Brain Heart Infusion agar (Difco 0418-01-5) are prepared. Each plate is inoculated with 1:100 (or 1:10 for slow growing strains, primarily Micrococcus and Streptococcus) dilutions of up to 32 different microorganisms, using a Steers replicator block The inoculated plates are incubated at 35°-37° C. for 20-24 hours. In addition, a control plate, using BHI agar containing no test compound, is prepared and incubated at the beginning and end of each test.
# (§3) An additional plate containing a compound having known susceptibility patterns for the organisms being tested and belonging to the same antibiotic class as the test compound is also prepared and incubated as a further control, as well as to provide test-to-test comparability. Erythromycin A was used for this purpose.
# (§4) After incubation, each disk is read. The MIC is defined as the lowest concentration of drug yielding no growth, a slight haze, or sparsely isolated colonies on the inoculum spot as compared to the growth control.
# [2] = system: Haemophilus influenzae 503B; conditions: H. influenzae 503B
# Method: as §1, §2, §3, §4
# [3] = system: Haemophilus influenzae 1177; conditions: H. influenzae 1177
# Method: as §1, §2, §3, §4
# [4] = system: Haemophilus influenzae ATCC 9795; conditions: ATCC9795, H. influenzae ATCC 9795
# Method: as §1, §2, §3, §4
# [5] = system: Haemophilus influenzae 667A; conditions: H. influenzae 667A
# Method: as §1, §2, §3, §4
# [6] = system: Haemophilus influenzae 632A; conditions: H. influenzae 632A
# Method: as §1, §2, §3, §4
# [7] = system: Haemophilus influenzae 1435; conditions: H. influenzae 1435
# Method: as §1, §2, §3, §4
# [8] = system: Haemophilus influenzae 747C; conditions: H. influenzae 747C
# Method: as §1, §2, §3, §4
# [9] = system: Haemophilus influenzae 751; conditions: H. influenzae 751
# Method: as §1, §2, §3, §4
# [10] = system: Haemophilus influenzae ATCC 10211; conditions: ATCC10211, H. influenzae ATCC 10211
# Method: as §1, §2, §3, §4
# [11] = system: Haemophilus influenzae DILL AMP R; conditions: H. influenzae DILL AMP R
# Method: as §1, §2, §3, §4
# [12] = system: Haemophilus influenzae 504; conditions: H. influenzae 504
# Method: as §1, §2, §3, §4
# [13] = system: Haemophilus influenzae SOL AMP R; conditions: H. influenzae SOL AMP R
# Method: as §1, §2, §3, §4
# [14] = system: Haemophilus influenzae 519A; conditions: H. influenzae 519A
# Method: as §1, §2, §3, §4
# [15] = system: Haemophilus influenzae ATCC 19418; conditions: ATCC19418, H. influenzae ATCC 19418
# Method: as §1, §2, §3, §4
# [16] = system: Haemophilus influenzae 566A; conditions: H. influenzae 566A
# Method: as §1, §2, §3, §4
# [17] = system: Haemophilus influenzae 588A; conditions: H. influenzae 588A
# Method: as §1, §2, §3, §4
SMILES,MIC [1],MIC [2],MIC [3],MIC [4],MIC [5],MIC [6],MIC [7],MIC [8],MIC [9],MIC [10],MIC [11],MIC [12],MIC [13],MIC [14],MIC [15],MIC [16],MIC [17]
CC[C@H]1OC(=O)[C@H](C)[C@@H](O[C@H]2C[C@@](C)(OC)[C@@H](O)[C@H](C)O2)[C@H](C)[C@@H](O[C@@H]2O[C@H](C)C[C@H](N(C)C)[C@H]2O)[C@](C)(O)C[C@@H](C)[C@@H](N2CCC(OC)(OC)CC2)[C@H](C)[C@@H](O)[C@]1(C)O [Example 27],1 mg/L,1 mg/L,0.06 mg/L,1 mg/L,1 mg/L,1 mg/L,0.25 mg/L,1 mg/L,2 mg/L,0.5 mg/L,0.5 mg/L,1 mg/L,1 mg/L,0.25 mg/L,1 mg/L,1 mg/L,1 mg/L
CC[C@H]1OC(=O)[C@H](C)[C@@H](O[C@H]2C[C@@](C)(OC)[C@@H](O)[C@H](C)O2)[C@H](C)[C@@H](O[C@@H]2O[C@H](C)C[C@H](N(C)C)[C@H]2O)[C@](C)(O)C[C@@H](C)[C@@H](N2CCC(=O)CC2)[C@H](C)[C@@H](O)[C@]1(C)O [Example 28],0.5 mg/L,0.25 mg/L,0.25 mg/L,1 mg/L,1 mg/L,2 mg/L,0.25 mg/L,0.5 mg/L,2 mg/L,5 mg/L,0.5 mg/L,1 mg/L,0.5 mg/L,0.25 mg/L,1 mg/L,2 mg/L,1 mg/L
